ChEMBL document CHEMBL6182910, “Design, Synthesis, and Biological Evaluation of 4-(Difluoromethyl)-1H-imidazole-5-carboxylic Acids/4-(3-Cyanophenoxy)pyrimidine-5-carboxylic Acids as P2Y1 Receptor Antagonists for Ischemic Stroke Treatment” (J Med Chem, 2025)
pIC50: −log10 of the molar value. Activity calls are given as the source filed them. No cut-off for these calls is given here.

Tests used:
Plasma = assay: Anti-platelet aggregation in platelet-rich plasma of male human assessed as inhibition of ADP-induced platelet aggregation preincubated for 15 mins followed by ADP addition measured up to 10 mins by Born's turbidometric method; format: functional, cell-free
[1] = Tmax male Sprague-Dawley rat at 10 mg/kg, po measured up to 24 hrs by LC-MS/MS analysis; format: ADME, organism-based; conditions: in vivo
[2] = AUC (0 to infinity) male Sprague-Dawley rat at 10 mg/kg, iv measured up to 24 hrs by LC-MS/MS analysis; format: ADME, organism-based; conditions: in vivo
Rattus norvegicus [3] = assay: Neuroprotective activity in MCAO-induced brain damage Sprague-Dawley rat model assessed as reduction in brain infarction size at 10 mg/kg, iv administered immediately after arterial occlusion measured after 24 hrs by TTC staining based analysis relative to control; format: functional; set-up: scale not given: the % may be the effect or the level left
Rattus norvegicus [4] = assay: Neuroprotective activity in MCAO-induced brain damage Sprague-Dawley rat model assessed as reduction in brain infarction size at 5 mg/kg, iv administered immediately after arterial occlusion measured after 24 hrs by TTC staining based analysis relative to control; format: functional; set-up: scale not given: the % may be the effect or the level left
Rattus norvegicus [5] = assay: Anti-platelet aggregation in Sprague-Dawley rat assessed as inhibition of ADP-induced platelet aggregation at 10 mg/kg, po measured for 15 mins in presence of 2.5 uM ADP by cell counter analysis relative to control; format: functional; conditions: 0.25 h
[6] = AUC in plasma of male Kunming mouse at 10 mg/kg, iv measured for 0.083 to 24 hrs by LC-MS/MS analysis; format: ADME, organism-based; conditions: time 0.083-24 hrs
P2Y purinoceptor 1 = P2Y purinoceptor 1 (Rattus norvegicus, UniProt P49651); assay: Antagonist activity at P2Y1 receptor in platelet-rich plasma of rat assessed as inhibition of ADP-induced cytosolic Ca2+ level pretreated for 5 mins followed by ADP addition by FLUO-4 AM dye based analysis; format: functional, cell-free
Chain of P2Y purinoceptor 1 (P49651 whole entry): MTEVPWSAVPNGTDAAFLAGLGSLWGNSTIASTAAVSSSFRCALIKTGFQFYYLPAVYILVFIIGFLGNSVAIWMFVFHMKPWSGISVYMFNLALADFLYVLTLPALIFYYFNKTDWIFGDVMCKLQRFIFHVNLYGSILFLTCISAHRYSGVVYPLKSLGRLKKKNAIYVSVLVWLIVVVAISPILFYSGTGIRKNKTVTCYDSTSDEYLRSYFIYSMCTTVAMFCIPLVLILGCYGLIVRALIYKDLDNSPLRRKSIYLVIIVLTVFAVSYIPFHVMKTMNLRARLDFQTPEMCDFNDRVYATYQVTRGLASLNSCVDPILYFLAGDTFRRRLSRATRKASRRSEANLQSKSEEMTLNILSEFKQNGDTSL

Rattus norvegicus [7] = assay: Neuroprotective activity in MCAO-induced brain damage Sprague-Dawley rat model assessed as brain infarction size at 10 mg/kg, iv administered immediately after arterial occlusion measured after 24 hrs by TTC staining based analysis (reference value: 43.1 %); format: functional
[8] = AUC in brain of male Sprague-Dawley rat at 10 mg/kg, iv measured for 0.083 to 24 hrs by LC-MS/MS analysis; format: ADME, organism-based; conditions: in vivo, time 0.083-24 hrs
[9] = Cmax male Sprague-Dawley rat at 10 mg/kg, iv measured up to 24 hrs by LC-MS/MS analysis; format: ADME, organism-based; conditions: in vivo
CYP2C9 = CYP2C9 (Homo sapiens, UniProt P11712); assay: Inhibition of CYP2C9 in human liver microsomes using tolbutamide as substrate at 10 uM preincubated for 5 min followed by NADPH addition measured after 120 mins by LC-MS/MS analysis relative to control; format: ADME, Microsome; conditions: probe tolbutamide, time 125 min
Chain of CYP2C9 (P11712 whole entry): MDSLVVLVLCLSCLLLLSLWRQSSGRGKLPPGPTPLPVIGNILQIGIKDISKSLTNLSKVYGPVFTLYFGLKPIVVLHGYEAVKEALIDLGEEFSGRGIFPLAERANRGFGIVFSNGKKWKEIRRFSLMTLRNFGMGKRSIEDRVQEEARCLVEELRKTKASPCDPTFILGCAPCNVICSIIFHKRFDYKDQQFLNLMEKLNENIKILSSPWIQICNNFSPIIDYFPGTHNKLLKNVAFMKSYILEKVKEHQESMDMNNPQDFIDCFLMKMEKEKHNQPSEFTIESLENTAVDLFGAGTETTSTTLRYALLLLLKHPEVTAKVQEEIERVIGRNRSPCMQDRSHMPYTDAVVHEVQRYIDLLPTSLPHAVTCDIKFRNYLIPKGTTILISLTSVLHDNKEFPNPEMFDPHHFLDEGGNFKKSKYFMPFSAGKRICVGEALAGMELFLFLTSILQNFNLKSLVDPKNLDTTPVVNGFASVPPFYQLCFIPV

[10] = target: P2Y purinoceptor 1 (Rattus norvegicus) (UniProt P49651); assay: Induction of thermodynamic stability of P2Y1 receptor in rat platelet-rich plasma incubated for 30 mins followed by heat exposure at 61 degreeC for 10 mins by CETSA; format: cell-free; conditions: dose <= 100.0 µM, time 40.0 min
Chain of P2Y purinoceptor 1 (Rattus norvegicus) (P49651 whole entry): as the sequence (P49651 whole entry) above

[11] = Cmax male Sprague-Dawley rat at 10 mg/kg, po measured up to 24 hrs by LC-MS/MS analysis; format: ADME, organism-based; conditions: in vivo
Rattus norvegicus [12] = assay: Neuroprotective activity in MCAO-induced brain damage Sprague-Dawley rat model assessed as plasma MDA level at 2.5 to 10 mg/kg, iv administered immediately after arterial occlusion measured after 24 hrs (reference value: 51.7 %); format: functional; conditions: dose 2.5-10 mg/kg
Rattus norvegicus [13] = assay: Anti-platelet aggregation in Sprague-Dawley rat assessed as inhibition of ADP-induced platelet aggregation at 10 mg/kg, po measured for 15 mins in presence of 5 uM ADP by cell counter analysis relative to control; format: functional; conditions: 0.25 h
Rattus norvegicus [14] = assay: Neuroprotective activity in MCAO-induced brain damage Sprague-Dawley rat model assessed as brain infarction size at 2.5 mg/kg, iv administered immediately after arterial occlusion measured after 24 hrs by TTC staining based analysis (reference value: 43.1 %); format: functional
[15] = Oral bioavailability male Sprague-Dawley rat at 10 mg/kg measured up to 24 hrs by LC-MS/MS analysis; format: ADME, organism-based; conditions: in vivo
Oryctolagus cuniculus = species on record: Oryctolagus cuniculus; assay: Antagonist activity at P2Y12 receptor in platelet-rich plasma of male Japanese white rabbit assessed as inhibition of VASP phosphorylation at Ser239 at 30 uM pretreated for 10 mins followed by PGE1/ADP addition measured after 10 mins by ELISA relative to control; format: cell-free; conditions: time 20.0 min
[16] = target: P2Y purinoceptor 12 (Rattus norvegicus) (UniProt Q9EPX4); assay: Antagonist activity at P2Y12 receptor in platelet-rich plasma of male Sprague-Dawley rat assessed as inhibition of VASP phosphorylation at Ser239 at 30 uM pretreated for 10 mins followed by PGE1/ADP addition measured after 10 mins by ELISA relative to control; format: cell-free; conditions: time 20.0 min
Chain of P2Y purinoceptor 12 (Rattus norvegicus) (Q9EPX4 whole entry): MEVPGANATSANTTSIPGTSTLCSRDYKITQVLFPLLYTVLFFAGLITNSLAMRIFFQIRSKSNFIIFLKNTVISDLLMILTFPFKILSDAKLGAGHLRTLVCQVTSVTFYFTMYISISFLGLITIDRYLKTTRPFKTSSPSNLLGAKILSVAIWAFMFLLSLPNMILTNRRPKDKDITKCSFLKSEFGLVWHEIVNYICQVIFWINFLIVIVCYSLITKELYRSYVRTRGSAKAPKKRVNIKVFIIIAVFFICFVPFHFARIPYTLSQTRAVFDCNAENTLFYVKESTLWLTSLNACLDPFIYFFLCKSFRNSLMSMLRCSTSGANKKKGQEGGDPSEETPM

Rattus norvegicus [17] = assay: Neuroprotective activity in MCAO-induced brain damage Sprague-Dawley rat model assessed as improvement in motor co-ordination administered intravenously immediately after arterial occlusion measured after 24 hrs by Longa's method; format: functional, organism-based; conditions: dose 2.5-10 mg/kg, route iv
[18] = Antagonist activity at P2Y1 receptor in platelet-rich plasma of male Japanese white rabbit assessed as inhibition of ADP-induced cytosolic Ca2+ level pretreated for 5 mins followed by ADP addition by FLUO-4 AM dye based analysis; format: cell-free; conditions: Oryctolagus cuniculus
[19] = Apparent volume of distribution male Sprague-Dawley rat at 10 mg/kg, iv measured up to 24 hrs by LC-MS/MS analysis; format: ADME, organism-based; conditions: in vivo, read-out: Vz
[20] = Ratio of AUC in brain to plasma of male Kunming mouse at 10 mg/kg, iv measured for 0.083 to 24 hrs by LC-MS/MS analysis; format: ADME, organism-based; conditions: brain and plasma, time 0.083-24 hrs, read-out: Ratio AUC
[21] = MRT (0 to infinity) male Sprague-Dawley rat at 10 mg/kg, iv measured up to 24 hrs by LC-MS/MS analysis; format: ADME, organism-based; conditions: in vivo
[22] = AUC in plasma of male Sprague-Dawley rat at 10 mg/kg, iv measured for 0.083 to 24 hrs by LC-MS/MS analysis; format: ADME, organism-based; conditions: time 0.083-24 hrs
CYP2C19 = CYP2C19 (Homo sapiens, UniProt P33261); assay: Inhibition of CYP2C19 in human liver microsomes using S-mephenytoin as substrate at 10 uM preincubated for 5 min followed by NADPH addition measured after 120 mins by LC-MS/MS analysis relative to control; format: ADME, Microsome; conditions: probe S-mephenytoin, time 125 min
Chain of CYP2C19 (P33261 whole entry): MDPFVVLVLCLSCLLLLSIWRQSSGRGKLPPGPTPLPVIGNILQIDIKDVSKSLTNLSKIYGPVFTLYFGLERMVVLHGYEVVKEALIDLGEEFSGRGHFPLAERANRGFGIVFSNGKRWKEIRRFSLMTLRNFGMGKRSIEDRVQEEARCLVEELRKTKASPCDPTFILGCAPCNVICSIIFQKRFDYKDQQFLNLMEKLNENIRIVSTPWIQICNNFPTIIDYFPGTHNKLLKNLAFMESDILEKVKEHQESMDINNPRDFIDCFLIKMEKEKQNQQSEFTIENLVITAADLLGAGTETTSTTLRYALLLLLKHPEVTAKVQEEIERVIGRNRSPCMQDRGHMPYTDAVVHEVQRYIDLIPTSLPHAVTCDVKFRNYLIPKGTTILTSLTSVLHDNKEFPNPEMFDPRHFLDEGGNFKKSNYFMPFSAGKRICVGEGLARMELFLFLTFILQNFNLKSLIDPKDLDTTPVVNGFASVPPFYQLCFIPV

Rattus norvegicus [23] = assay: Neuroprotective activity in MCAO-induced brain damage Sprague-Dawley rat model assessed as tightly arranged hippocampal neurons at 2.5 to 10 mg/kg, iv administered immediately after arterial occlusion measured after 24 hrs by H and E staining based analysis; format: functional, organism-based; conditions: dose 2.5-10 mg/kg
[24] = Ratio of AUC in brain to plasma of male Sprague-Dawley rat at 10 mg/kg, iv measured for 0.083 to 24 hrs by LC-MS/MS analysis; format: ADME, organism-based; conditions: brain and plasma, time 0.083-24 hrs, read-out: Ratio AUC
[25] = Clearance male Sprague-Dawley rat at 10 mg/kg, po measured up to 24 hrs by LC-MS/MS analysis; format: ADME, organism-based; conditions: in vivo

| Compound | pIC50 (Plasma) | AUC(0-inf) [2] [ng·h/mL] | Activity (Rattus norvegicus [3]) [%] | Activity (Rattus norvegicus [4]) [%] | inhibition in vivo at 10 mg/kg (Rattus norvegicus [5]) [%] | AUC [6] [ng·h/mL] | pIC50 (P2Y purinoceptor 1) | Activity (Rattus norvegicus [7]) [%] | AUC [8] [µg·h/g] | Cmax [9] [ng/mL] | inhibition at 2 h, 10 µM (CYP2C9) [%] | Activity [10] | Activity (Rattus norvegicus [12]) [%] | inhibition in vivo at 10 mg/kg (Rattus norvegicus [13]) [%] | Activity (Rattus norvegicus [14]) [%] | bioavailability [15] [%] | inhibition (Oryctolagus cuniculus) [%] | inhibition [16] [%] | Activity (Rattus norvegicus [17]) | pIC50 [18] | also measured |
| --- | --- | --- | --- | --- | --- | --- | --- | --- | --- | --- | --- | --- | --- | --- | --- | --- | --- | --- | --- | --- | --- |
| N#Cc1cccc(Oc2nc(-c3cccc(C#N)c3)ncc2C(=O)O)c1 | 5.44 | 23800 | 74.2 | 50.6 | 66 | 5360 | 5.61 | 11.1 | 18.55 | 48200 | 26.3 | Dose-dependent-effect | 32 | 47.6 | 29.3 | 4.1 | 35.9 | 29.3 | Dose-dependent-effect; Outperformed Edaravone And Hnw001 At 10 Mg/Kg | 6.30 | Tmax ([1]; po, 10 mg/kg, 24 h): 6.12 min; Cmax ([11]; po, 10 mg/kg, 24 h): 610 ng/mL; Vd [19]: 0.404 L/kg; Kp [20]: 2.39; MRT inf [21]: 27.2 min; AUC [22]: 75200 ng·h/mL; inhibition at 2 h, 10 µM (CYP2C19): 9.7%; Activity (Rattus norvegicus [23]): Active; Kp [24]: 0.25; CL/F [25]: 169 mL/min/kg |
| N#Cc1cccc(-c2nc(C(F)F)c(C(=O)O)n2OCc2csc(N)n2)c1 | 5.47 | 11400 | 51.5 | 45.9 | 54.5 | 650 | 5.66 | 20.9 | 1.02 | 44300 | 9.7 | Dose-dependent-effect | 32 | 43.2 | 25.6 | 0.31 | 24.5 | 18.4 | Dose-dependent-effect; Outperformed Edaravone And Hnw001 At 10 Mg/Kg | 6.31 | Tmax ([1]; male, Sprague-Dawley, read-out: Tmax): 10 min; Cmax ([11]; male, Sprague-Dawley, read-out: Cmax): 480 ng/mL; Vd [19]: 0.338 L/kg; Kp [20]: 1.08; MRT inf [21]: 7.5 min; AUC [22]: 14000 ng·h/mL; inhibition at 2 h, 10 µM (CYP2C19): 27.4%; Activity (Rattus norvegicus [23]): Active; Kp [24]: 0.073; CL/F [25]: 4630 mL/min/kg |
